How the values were obtained:
[1] = molecular target: T1, wt human TYK2, catalytic site (Homo sapiens, UniProt P29597); experiment: HTRF KinEASE assay, TYK2; type: biochemical; conditions: 1 μM ATP; read-out: IC50, inhibitory activity toward TYK2
T1 construct: 2 nM wt human TYK2, catalytic site (SignalChem/CAN); purchased SignalChem/CAN
T1 sequence (P29597 897-1176 limits assumed): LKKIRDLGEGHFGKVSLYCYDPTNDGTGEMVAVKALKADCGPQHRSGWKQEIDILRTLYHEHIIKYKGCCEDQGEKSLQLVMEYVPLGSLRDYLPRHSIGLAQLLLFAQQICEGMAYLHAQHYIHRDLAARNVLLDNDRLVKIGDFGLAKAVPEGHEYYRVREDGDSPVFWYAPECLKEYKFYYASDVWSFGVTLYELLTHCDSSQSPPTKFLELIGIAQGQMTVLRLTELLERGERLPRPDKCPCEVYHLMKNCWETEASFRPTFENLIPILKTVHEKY
Procedure: Basic protocol for HTRF KinEASE assay (Cisbio/FRA) inhibitor studies involved two steps: Enzymatic step: Addition of 4 μl of test compound in corresponding DMSO dilutions, 4 μl of kinase/substrate mixture, 2 μl of ATP into 384 well small volume plates. Incubation for at least 30 minutes at room temperature.
Detection step: Addition of 5 μl antibody and 5 μl streptavidin-XL665, read plate after 60 minutes. Data analysis of emission ratios according to KinEASE assay protocol.
Kinase and assay components were adjusted to final concentrations according to the kit protocol. For TYK2: 2 nM wt human TYK2, catalytic site (SignalChem/CAN), 1 μM HTRF KinEASE-TK Substrate-biotin, 1 μM ATP in 1× Kinase Buffer

[2] = molecular target: T2, wt human NUAK1, full length (Homo sapiens, UniProt O60285); experiment: TR-FRET LanthaScreen Eu Kinase Binding Assay, NUAK1; conditions: 5 nM Kinase Tracer 236; read-out: IC50, inhibitory activity toward NUAK1
T2 construct: 8 nM wt human NUAK1, full length (ThermoFisher/USA); purchased ThermoFisher/USA
T2 sequence (O60285 1-661): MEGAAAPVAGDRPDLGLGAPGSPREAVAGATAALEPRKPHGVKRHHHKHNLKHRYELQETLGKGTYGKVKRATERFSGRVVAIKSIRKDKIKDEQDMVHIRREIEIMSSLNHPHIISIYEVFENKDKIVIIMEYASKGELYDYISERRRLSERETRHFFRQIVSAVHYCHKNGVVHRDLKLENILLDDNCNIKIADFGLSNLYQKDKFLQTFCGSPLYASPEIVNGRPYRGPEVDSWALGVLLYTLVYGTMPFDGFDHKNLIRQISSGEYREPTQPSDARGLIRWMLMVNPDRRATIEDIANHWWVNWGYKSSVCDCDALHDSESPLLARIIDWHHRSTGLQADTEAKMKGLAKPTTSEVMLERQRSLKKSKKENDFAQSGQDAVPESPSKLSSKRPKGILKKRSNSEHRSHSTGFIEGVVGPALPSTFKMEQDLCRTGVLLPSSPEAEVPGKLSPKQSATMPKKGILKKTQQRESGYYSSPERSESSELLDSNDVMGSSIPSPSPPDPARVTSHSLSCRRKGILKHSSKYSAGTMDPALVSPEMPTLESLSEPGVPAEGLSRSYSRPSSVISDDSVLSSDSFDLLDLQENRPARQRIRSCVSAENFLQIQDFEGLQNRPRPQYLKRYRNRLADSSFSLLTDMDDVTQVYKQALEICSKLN
Procedure: The basic protocol for TR-FRET LanthaScreen Eu Kinase Binding Assay inhibitor studies were performed as follows. LanthaScreen Kinase Binding Assays (ThermoFisher/USA) to evaluate inhibitors were performed by addition of 5 μl of test compound in corresponding DMSO dilutions/5 μl of kinase/antibody mixture, 5 μl of tracer into 384 well small volume plates. After incubation for 1 hour at room temperature, plates were read. Data analysis of emission ratios was according to LanthaScreen Eu Kinase Binding Assay protocol.
Kinase and assay components were adjusted to final concentrations according to the kit protocol. For LRRK2: 5 nM wt human LRRK2, catalytic site, or G2019S human LRRK2, catalytic site (ThermoFisher/USA), 2 nM Eu-Anti-GST Antibody, 10 nM Kinase Tracer 236 in 1× Kinase Buffer A. For NUAK1: 8 nM wt human NUAK1, full length (ThermoFisher/USA), 2 nM Eu-Anti-His Antibody, 5 nM Kinase Tracer 236 in 1× Kinase Buffer A.

SMILES: Fc1cccc(F)c1C1=Nc2cn[nH]c2-c2ccccc2N1 [Compound 8, 5-(2,6-difluorophenyl)-1,6-dihydrobenzo[d]pyrazolo[3,4-f][1,3]diazepine]
- IC50 [1]: 10 to 100 nM
- IC50 [2]: 100 to 1000 nM

SMILES: Fc1cccc(F)c1C1=Nc2ncccc2-c2[nH]ncc2N1 [Compound 11, 5-(2,6-difluorophenyl)-1,4-dihydropyrazolo[4,3-d]pyrido[3,2-f][1,3]diazepine]
- IC50 [1]: 100 to 1000 nM
- IC50 [2]: 10 to 100 nM

SMILES: Fc1ccc(Cl)c(F)c1C1=Nc2ccccc2-c2[nH]ncc2N1 [Compound 18, 5-(3-chloro-2,6-difluorophenyl)-1,4-dihydrobenzo[d]pyrazolo[3,4-f][1,3]diazepine]
- IC50 [1]: 100 to 1000 nM
- IC50 [2]: 100 to 1000 nM

SMILES: Fc1cccc(F)c1C1=Nc2ccc(Cl)cc2-c2[nH]ncc2N1 [Compound 25, 9-chloro-5-(2,6-difluorophenyl)-1,4-dihydrobenzo[d]pyrazolo[3,4-f][1,3]diazepine]
- IC50 [1]: 100 to 1000 nM
- IC50 [2]: 10 to 100 nM

SMILES: Fc1cccc(Cl)c1C1=Nc2ccccc2-c2[nH]ncc2N1 [Compound 27, 5-(2-chloro-6-fluorophenyl)-1,4-dihydrobenzo[d]pyrazolo[3,4-f][1,3]diazepine]
- IC50 [1]: 10 to 100 nM
- IC50 [2]: 10 to 100 nM

SMILES: Fc1cccc(Cl)c1C1=Nc2ncccc2-c2[nH]ncc2N1 [Compound 30, 5-(2-chloro-6-fluorophenyl)-1,4-dihydropyrazolo[4,3-d]pyrido[3,2-f][1,3]diazepine]
- IC50 [1]: 10 to 100 nM

SMILES: Fc1ccc(F)c(C2=Nc3ccccc3-c3[nH]ncc3N2)c1F [Compound 32, 5-(2,3,6-trifluorophenyl)-1,4-dihydrobenzo[d]pyrazolo[3,4-f][1,3]diazepine]
- IC50 [1]: 100 to 1000 nM
- IC50 [2]: 100 to 1000 nM

SMILES: Fc1ccc2c(c1)-c1[nH]ncc1N=C(c1c(F)cccc1F)N2 [Compound 33, 5-(2,6-difluorophenyl)-9-fluoro-1,6-dihydrobenzo[d]pyrazolo[3,4-f][1,3]diazepine]
- IC50 [1]: 10 to 100 nM
- IC50 [2]: 10 to 100 nM

SMILES: Fc1ccc2c(c1)-c1[nH]ncc1N=C(c1c(F)cccc1Cl)N2 [Compound 34, 5-(2-chloro-6-fluorophenyl)-9-fluoro-1,6-dihydrobenzo[d]pyrazolo[3,4-f][1,3]diazepine]
- IC50 [1]: 10 to 100 nM
- IC50 [2]: 10 to 100 nM

SMILES: Cc1ccc2c(c1)-c1[nH]ncc1N=C(c1c(F)cccc1Cl)N2 [Compound 35, 5-(2-chloro-6-fluorophenyl)-9-methyl-1,6-dihydrobenzo[d]pyrazolo[3,4-f][1,3]diazepine]
- IC50 [1]: 100 to 1000 nM
- IC50 [2]: 10 to 100 nM

SMILES: Cc1ccc2c(c1)-c1[nH]ncc1N=C(c1c(F)cccc1F)N2 [Compound 36, 5-(2,6-difluorophenyl)-9-methyl-1,6-dihydrobenzo[d]pyrazolo[3,4-f][1,3]diazepine]
- IC50 [1]: 100 to 1000 nM
- IC50 [2]: 10 to 100 nM

SMILES: Fc1cccc(Cl)c1C1=Nc2ccc(Cl)cc2-c2[nH]ncc2N1 [Compound 37, 9-chloro-5-(2-chloro-6-fluorophenyl)-1,4-dihydrobenzo[d]pyrazolo[3,4-f][1,3]diazepine]
- IC50 [1]: 100 to 1000 nM
- IC50 [2]: 100 to 1000 nM

SMILES: COc1ccc2c(c1)-c1[nH]ncc1N=C(c1c(F)cccc1F)N2 [Compound 38, 5-(2,6-difluorophenyl)-9-methoxy-1,6-dihydrobenzo[d]pyrazolo[3,4-f][1,3]diazepine]
- IC50 [1]: 100 to 1000 nM
- IC50 [2]: 100 to 1000 nM

SMILES: O=C(c1ccc2c(c1)N=C(c1c(F)cccc1F)Nc1cn[nH]c1-2)N1CCOCC1 [Compound 56, (5-(2,6-difluorophenyl)-1,4-dihydrobenzo[d]pyrazolo[3,4-f][1,3]diazepin-8-yl)(morpholino)methanone]
- IC50 [1]: 100 to 1000 nM

SMILES: Fc1cccc(F)c1C1=Nc2cn[nH]c2-c2cn(C3CCOCC3)nc2N1 [Compound 60, 5-(2,6-difluorophenyl)-8-(tetrahydro-2H-pyran-4-yl)-6,8-dihydro-1H-dipyrazolo[3,4-d:3′,4′-f][1,3]diazepine]
- IC50 [1]: 100 to 1000 nM

SMILES: Fc1cccc(F)c1C1=Nc2cn[nH]c2-c2[nH]ncc2N1 [Compound 66, 5-(2,6-difluorophenyl)-4,9-dihydro-1H-dipyrazolo[4,3-d:3′,4′-f][1,3]diazepine]
- IC50 [1]: 10 to 100 nM

SMILES: O=C(c1ccc2c(c1)N=C(c1c(Cl)cccc1Cl)Nc1cn[nH]c1-2)N1CCOCC1 [Compound 79, (5-(2,6-dichlorophenyl)-1,4-dihydrobenzo[d]pyrazolo[3,4-f][1,3]diazepin-8-yl)(morpholino)methanone]
- IC50 [1]: 100 to 1000 nM

SMILES: NC(=O)c1ccc2c(c1)N=C(c1c(F)cccc1F)Nc1cn[nH]c1-2 [Compound 81, 5-(2,6-difluorophenyl)-1,4-dihydrobenzo[d]pyrazolo[3,4-f][1,3]diazepine-8-carboxamide]
- IC50 [1]: < 10 nM

SMILES: O=[N+]([O-])c1cccc(F)c1C1=Nc2cn[nH]c2-c2ccccc2N1 [Compound 106, 5-(2-fluoro-6-nitrophenyl)-1,6-dihydrobenzo[d]pyrazolo[3,4-f][1,3]diazepine]
- IC50 [1]: 100 to 1000 nM

SMILES: O=[N+]([O-])c1ccc(F)c(C2=Nc3cn[nH]c3-c3ccccc3N2)c1F [Compound 107, 5-(2,6-difluoro-3-nitrophenyl)-1,6-dihydrobenzo[d]pyrazolo[3,4-f][1,3]diazepine]
- IC50 [1]: 100 to 1000 nM

SMILES: O=[N+]([O-])c1cccc(F)c1C1=Nc2cn[nH]c2-c2cccnc2N1 [Compound 108, 5-(2-fluoro-6-nitrophenyl)-1,6-dihydropyrazolo[4,3-d]pyrido[3,2-f][1,3]diazepine]
- IC50 [1]: 100 to 1000 nM

SMILES: Fc1cccc(I)c1C1=Nc2ccccc2-c2[nH]ncc2N1 [Compound 111, 5-(2-fluoro-6-iodophenyl)-1,4-dihydrobenzo[d]pyrazolo[3,4-f][1,3]diazepine]
- IC50 [1]: 100 to 1000 nM

SMILES: COc1cccc(F)c1C1=Nc2cn[nH]c2-c2cccnc2N1 [Compound 119]
- IC50 [1]: 100 to 1000 nM

SMILES: Fc1ccc2c(c1F)N=C(c1c(F)cccc1F)Nc1cn[nH]c1-2 [Compound 170, 5-(2,6-difluorophenyl)-7,8-difluoro-1,4-dihydrobenzo[d]pyrazolo[3,4-f][1,3]diazepine]
- IC50 [1]: 100 to 1000 nM

SMILES: O=C(NC1CCOCC1)c1cc2c(cc1Cl)-c1n[nH]cc1N=C(c1c(F)cccc1F)N2 [Compound 199, 9-chloro-5-(2,6-difluorophenyl)-N-(tetrahydro-2H-pyran-4-yl)-2,6-dihydrobenzo[d]pyrazolo[3,4-f][1,3]diazepine-8-carboxamide]
- IC50 [1]: 100 to 1000 nM

SMILES: Fc1cc2c(cc1OC1CCOCC1)N=C(c1c(Cl)cccc1C(F)(F)F)Nc1c[nH]nc1-2 [Compound 224, 5-(2-chloro-6-(trifluoromethyl)phenyl)-9-fluoro-8-((tetrahydro-2H-pyran-4-yl)oxy)-2,4-dihydrobenzo[d]pyrazolo[3,4-f][1,3]diazepine]
- IC50 [1]: 10 to 100 nM

SMILES: CCC(CC)Oc1cc2c(cc1F)-c1n[nH]cc1N=C(c1c(F)cccc1Cl)N2 [Compound 232, 5-(2-chloro-6-fluorophenyl)-9-fluoro-8-(pentan-3-yloxy)-2,6-dihydrobenzo[d]pyrazolo[3,4-f][1,3]diazepine]
- IC50 [1]: 10 to 100 nM

SMILES: Fc1cc2c(cc1Oc1ccccc1)N=C(c1c(F)cccc1Cl)Nc1c[nH]nc1-2 [Compound 244, 5-(2-chloro-6-fluorophenyl)-9-fluoro-8-phenoxy-2,4-dihydrobenzo[d]pyrazolo[3,4-f][1,3]diazepine]
- IC50 [1]: 100 to 1000 nM

SMILES: CC[C@@H](C)Oc1cc2c(cc1F)-c1n[nH]cc1N=C(c1c(F)cccc1Cl)N2 [Compound 248, (R)-8-(sec-butoxy)-5-(2-chloro-6-fluorophenyl)-9-fluoro-2,6-dihydrobenzo[d]pyrazolo[3,4-f][1,3]diazepine]
- IC50 [1]: 10 to 100 nM

Source: patent publication US20220380374A1, “1,4-DIHYDROBENZO[D]PYRAZOLO[3,4-F][1,3]DIAZEPINE DERIVATIVES AND RELATED COMPOUNDS AS LRRK2, NUAK1 AND/OR TYK2 KINASE MODULATORS FOR THE TREATMENT OF E.G. AUTOIMMUNE DISEASE” (Origenis GMBH, priority 2019, published 2022)
